Measured values: PMC7927616, “Dual‐Targeting Peptide‐Guided Approach for Precision Delivery and Cancer Monitoring by Using a Safe Upconversion Nanoplatform” (Advanced Science, 2021)

Assays:
[1] = In vivo biodistribution by ICP-MS (Gd); parameters: species or system BALB/c nude mice; settings: mouse, iv
p65 in LCL3 cells = assay: NF‐κB signaling analysis by Western blotting; type: cell-based; settings: Western blot band density
Description: (§1) NF‐ĸB signaling pathway is critical for the survival of EBV‐infected tumor cells. Here we investigated if our nanoprobes could affect this oncogenic pathway. EBV‐positive LCL3 and C666 cells were used as models, EBV‐negative HK1 cells were used as control and Western blot was used to analyze the protein expression of p65, a major transcription factor in the NF‐ĸB family. […] GAPDH and Histone are regarded as internal standards in cytosolic and nuclear fractions, respectively. […] This is consistent with the cellular uptake results. The negligible differences of p65 expression level in HK1 cells were quantified after various treatments in Figure S28 (Supporting Information).
(§2) EBV‐positive C666, LCL3 and EBV‐negative HK1 cell pellets were treated with phosphatase and protease inhibitors at 0–4 °C for 30 min. The total protein concentrations were calculated by protein absorbance. The protein was resolved by sodium dodecyl sulfate‐polyacrylamide gel electrophoresis (SDS‐PAGE) and transferred to cellulose filter membranes. The membranes were blocked with 3% BSA in tris‐buffered saline in 0.1% Tween 20 (TBST) for 1 h with gentle shaking and subsequently incubated with primary antibodies (1:1000) in 3% BSA in TBST at 4 °C for overnight. […] Lastly, the density of bands was determined by image analysis system after washing with TBST buffer three times.

p65 in C666 cells = assay: NF‐κB signaling analysis by Western blotting; type: cell-based; settings: Western blot band density
Description: as §1, §2

Row | Substance | Tumor uptake [1] | Decreased p65 expression, nuclear fraction (p65 in LCL3 cells) [%] | Decreased p65 expression, nuclear fraction (p65 in C666 cells) [%]
1 | NaGdF4:Yb^3+, Er^3+@NaGdF4 [UCNP] | nearly undetectable | – | –
2 | ‐Ahx‐YFMVFGGRrRKGGFWLY [P5] | – | 86 | 89
